Measured values reported in patent US8343976B2, “Compounds, compositions and methods comprising pyrazole derivatives” (Institute for OneWorld Health, priority 2009, dated 2013).

These compounds were tested against T1, CFTR (Homo sapiens, UniProt P13569) (assay: T84 assay (FLIPR membrane potential dye, forskolin/IBMX-stimulated CFTR channel activity)). Details: Human colonic T84 cells; 10 μM forskolin + 100 μM IBMX; average of at least 2 runs unless marked n = 1.
T1 construct: results in the phosphorylation and opening of CFTR anion channels; host or cells: Human colonic T84 cells
T1 sequence (P13569 whole entry): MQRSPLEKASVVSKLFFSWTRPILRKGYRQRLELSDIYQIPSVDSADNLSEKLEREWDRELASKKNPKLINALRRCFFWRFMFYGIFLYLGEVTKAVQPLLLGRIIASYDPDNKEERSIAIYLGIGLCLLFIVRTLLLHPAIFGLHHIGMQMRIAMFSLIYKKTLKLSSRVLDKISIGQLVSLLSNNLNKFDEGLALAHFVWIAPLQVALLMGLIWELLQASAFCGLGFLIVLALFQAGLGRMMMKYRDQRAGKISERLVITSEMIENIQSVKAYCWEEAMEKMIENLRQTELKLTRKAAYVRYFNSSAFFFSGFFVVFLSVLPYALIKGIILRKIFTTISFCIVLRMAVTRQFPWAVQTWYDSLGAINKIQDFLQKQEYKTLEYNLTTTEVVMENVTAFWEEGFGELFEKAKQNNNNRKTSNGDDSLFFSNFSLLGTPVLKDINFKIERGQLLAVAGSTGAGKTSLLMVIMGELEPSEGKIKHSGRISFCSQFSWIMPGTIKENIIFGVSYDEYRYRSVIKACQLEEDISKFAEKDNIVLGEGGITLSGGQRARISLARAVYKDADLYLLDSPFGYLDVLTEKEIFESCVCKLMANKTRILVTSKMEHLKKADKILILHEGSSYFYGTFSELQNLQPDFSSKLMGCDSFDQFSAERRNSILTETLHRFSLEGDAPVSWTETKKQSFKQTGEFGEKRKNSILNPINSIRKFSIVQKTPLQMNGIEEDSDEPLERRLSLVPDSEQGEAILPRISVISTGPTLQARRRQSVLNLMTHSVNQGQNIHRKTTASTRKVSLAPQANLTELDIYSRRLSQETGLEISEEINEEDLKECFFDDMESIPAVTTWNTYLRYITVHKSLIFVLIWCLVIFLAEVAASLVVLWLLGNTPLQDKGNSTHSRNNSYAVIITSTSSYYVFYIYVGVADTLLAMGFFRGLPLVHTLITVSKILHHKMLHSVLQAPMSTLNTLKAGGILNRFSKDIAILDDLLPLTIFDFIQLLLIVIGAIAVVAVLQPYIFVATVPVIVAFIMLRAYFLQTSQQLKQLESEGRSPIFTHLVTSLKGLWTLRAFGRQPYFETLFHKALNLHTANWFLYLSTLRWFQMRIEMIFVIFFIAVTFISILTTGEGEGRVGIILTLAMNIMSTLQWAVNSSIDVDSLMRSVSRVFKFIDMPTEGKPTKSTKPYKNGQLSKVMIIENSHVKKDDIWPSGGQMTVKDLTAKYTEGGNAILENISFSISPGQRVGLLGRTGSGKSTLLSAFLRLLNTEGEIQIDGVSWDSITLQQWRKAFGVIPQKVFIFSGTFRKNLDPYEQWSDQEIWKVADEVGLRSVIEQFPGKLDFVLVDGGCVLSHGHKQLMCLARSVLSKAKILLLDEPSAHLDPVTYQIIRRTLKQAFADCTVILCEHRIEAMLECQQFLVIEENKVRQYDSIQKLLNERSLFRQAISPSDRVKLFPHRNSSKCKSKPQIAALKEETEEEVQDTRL
Assay type: cell-based
Procedure: (§1) For example, Human colonic T84 cells can be acquired from the European Collection of Cell Cultures (ECACC) and grown in standard culture conditions as described by the supplier. On the day before assay 25,000 T84 cells per well are plated into standard black walled, clear bottom 384-well assay plates in standard growth medium consisting of DMEM:F12 with 10% FBS and incubated overnight. On the day of the assay the plates are washed using a standard assay buffer (HBSS with 10 mM Hepes) and incubated for 15 minutes in serum free cell culture medium before the addition of a commercially available membrane potential sensitive fluorescent dye (FLIPR Red membrane potential dye, Molecular Devices Corporation). T84 cells are incubated with the FLIPR Red membrane potential dye for 45 minutes in the presence and absence of test compound before being transferred to a commercially available fluorescence imaging plate reader (FLIPR384, Molecular Devices Corporation). Fluorescence levels are monitored continuously every second for 150 seconds; after an initial 10 second baseline, CFTR channel activity is stimulated through the addition of 10 μM forskolin in the presence of 100 μM of the phosphodiesterase inhibitor iso-butylmethylxanthine (IBMX). Addition of the forskolin leads to the activation of intracellular adenylyl cylase 1, elevating cAMP levels and results in the phosphorylation and opening of CFTR anion channels. CFTR channel opening causes chloride ion efflux and subsequent depolarization of the cells, which is measured by an increase in fluorescence. CFTR inhibitor compounds prevent cell depolarization and the associated increase in fluorescence.
as §1, with “Human colonic” for “For example, Human colonic”, “T84 cells are acquired from” for “T84 cells can be acquired from”, “(ECACC) and are grown in” for “(ECACC) and grown in”
With `O=C(c1cc(-c2cc(Cl)c(O)c(Cl)c2)n[nH]1)N1CCN(c2cccc(C(F)(F)F)c2)CC1` [Compound 10, (3-(3,5-dichloro-4-hydroxyphenyl)-1H-pyrazol-5-yl)(4-(3-(trifluoromethyl)phenyl)piperazin-1-yl)methanone] the IC50 was 29.6 µM.
For `O=C(NCc1ccc(F)c(C(F)(F)F)c1)c1cc(-c2cc(Cl)c(O)c(Cl)c2)n[nH]1` [Compound 9, 3-(3,5-dichloro-4-hydroxyphenyl)-N-(4-fluoro-3-(trifluoromethyl)benzyl)-1H-pyrazole-5-carboxamide], the IC50 was 29.8 µM.
With `O=C(NCCC(c1ccccc1)c1ccccc1)c1cc(-c2cc(Cl)c(O)c(Cl)c2)n[nH]1` [Compound 3, 3-(3,5-dichloro-4-hydroxyphenyl)-N-(3,3-diphenylpropyl)-1H-pyrazole-5-carboxamide] the IC50 was 3.46 µM.
Compound `CN(Cc1ccc(C(C)(C)C)cc1)C(=O)c1cc(-c2cc(Cl)c(O)c(Cl)c2)n[nH]1` [Compound 8, N-(4-tert-butylbenzyl)-3-(3,5-dichloro-4-hydroxyphenyl)-N-methyl-1H-pyrazole-5-carboxamide] has an IC50 of 16.5 µM.
With `CN(Cc1ccc(Oc2ccccc2)cc1)C(=O)c1cc(-c2cc(Cl)c(O)c(Cl)c2)n[nH]1` [Compound 4, 3-(3,5-dichloro-4-hydroxyphenyl)-N-methyl-N-(4-phenoxybenzyl)-1H-pyrazole-5-carboxamide] the IC50 was 21.1 µM.
`CC(C)(C)c1ccc(CNC(=O)c2cc(-c3cc(Cl)c(O)c(Cl)c3)n[nH]2)cc1` [Compound 6, N-(4-tert-butylbenzyl)-3-(3,5-dichloro-4-hydroxyphenyl)-1H-pyrazole-5-carboxamide] was tested, and the IC50 was 17.4 µM.
In the case of `O=C(NCc1ccc(Cl)c(Cl)c1)c1cc(-c2cc(Cl)c(O)c(Cl)c2)n[nH]1` [Compound 5, 3-(3,5-dichloro-4-hydroxyphenyl)-N-(3,4-dichlorobenzyl)-1H-pyrazole-5-carboxamide], the IC50 is reported as 29.5 µM.
Work on `O=C(NCc1cccc(OC(F)(F)F)c1)c1cc(-c2cc(Cl)c(O)c(Cl)c2)n[nH]1` [Compound 2, 3-(3,5-dichloro-4-hydroxyphenyl)-N-(3-(trifluoromethoxy)benzyl)-1H-pyrazole-5-carboxamide] yielded an IC50 of 18.7 µM.
`CN(Cc1ccc(Oc2ccccn2)cc1)C(=O)c1cc(-c2cc(Cl)c(O)c(Cl)c2)n[nH]1` [Compound 7, 3-(3,5-dichloro-4-hydroxyphenyl)-N-methyl-N-(4-(pyridin-2-yloxy)benzyl)-1H-pyrazole-5-carboxamide] showed an IC50 of 21 µM.
Work on `CN(Cc1cccc(C(F)(F)F)c1)C(=O)c1cc(-c2cc(Cl)c(O)c(Cl)c2)n[nH]1` [Compound 1, 3-(3,5-dichloro-4-hydroxyphenyl)-N-methyl-N-(3-(trifluoromethyl)benzyl)-1H-pyrazole-5-carboxamide] yielded an IC50 of 9.06 µM.
